Results taken from patent US4663309A, “Novel peptide hormones with calcitonin-like activity” (University Patents, Inc., priority 1985, dated 1987).
Entries after “also recorded” stand apart in the source; their conditions may differ. Bridge positions count the residues as written; N and C are the ends. Peptide text beside a SMILES is read from it.

Tests used:
[1] = molecular target: T1, brain receptors (calcitonin receptors, crude rat brain membranes) (Rattus norvegicus, UniProt P32214); conditions: tubes pretreated with peptide, 30 min at 4° C.
T1 sequence (P32214 25-516): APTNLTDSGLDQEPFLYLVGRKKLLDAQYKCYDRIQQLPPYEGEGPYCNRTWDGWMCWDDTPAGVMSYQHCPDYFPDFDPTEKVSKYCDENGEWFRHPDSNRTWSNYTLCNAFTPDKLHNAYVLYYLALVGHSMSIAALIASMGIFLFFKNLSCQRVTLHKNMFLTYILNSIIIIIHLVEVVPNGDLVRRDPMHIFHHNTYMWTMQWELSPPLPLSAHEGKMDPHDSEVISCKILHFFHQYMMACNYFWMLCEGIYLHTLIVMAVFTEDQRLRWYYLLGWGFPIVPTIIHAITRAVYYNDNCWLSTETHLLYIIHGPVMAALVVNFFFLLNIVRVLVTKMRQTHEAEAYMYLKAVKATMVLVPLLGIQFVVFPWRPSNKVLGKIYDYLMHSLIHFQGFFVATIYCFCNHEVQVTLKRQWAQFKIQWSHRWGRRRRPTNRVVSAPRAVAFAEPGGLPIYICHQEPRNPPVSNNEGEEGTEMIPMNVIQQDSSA
Procedure: Crude rats brain membranes were prepared as described by Nakamuta et al., supra, using 250-300 gm male Sprague-Dawley rats (Charles River Breeding Laboratories). Membranes were either used immediately or stored at -80° C. for no more than three days. Crude rat kidney membranes used for binding studies and adenylate cyclase assays were prepared as described by Schwartz, K. E., R. C. […] The dissected kidney cortices were first homogenized briefly with a Polytron™ (Brinkman Instruments) at low speed ("5") before complete homogenization with a loose-fitting Wheaton Dounce homogenizer (American Scientific Products, MacGaw Park, IL, pestle "B"). […] All preparations of kidney membranes were carried out at 4° C. and the membranes were used immediately for binding studies or adenylate cyclase assays.
The mixture was aspirated after a 1 hr incubation and these tubes were reused for all experiments, one set for brain membrane binding experiments and one set for kidney membrane binding experiments. […] Incubations were continued for 30 min at 4° C. (brain membranes) or 40 min at 21° C. (kidney membranes), and then stopped by centrifuging the tubes at 13,000 rpm for 5 min on a Beckman Microfuge II™ (Beckman Instruments). […] Radioactivity in each tip was quantitated using a Beckman Gamma 5500™ counter (Beckman Instruments).

[2] = system: male Sprague-Dawley rats; assay: In vivo relative hypocalcemic potency in rats (Example 10); set-up: species or system rat
Procedure: The relative hypocalcemic potency of MCT-II and SCT-I was assessed by giving 3 to 4 week-old male Sprague-Dawley rats (Charles River Breeding Laboratories) subcutaneous injections of hormone in 0.9% saline containing 0.1% BSA. In each experiment, 25 rats were divided into 5 groups of 5 rats each and each group given either saline alone or saline with hormone. Blood samples were obtained by cardiac puncture from the ether-anesthetized rats 1 hr after injection. 200 μl of the blood plasma was diluted in 5 ml of 5% trichloroacetic acid-1000 ppm lithium (Chem-Chek Consulting Inc., South Boundbrook, NJ) and centrifuged before determining the calcium concentration by plasma emission spectrometry (Beckman Spectra Span IV™, Beckman Instruments). Calcium standards were also purchased from Chem-Chek Consulting Inc.

[3] = Binding to single bilayer egg lecithin vesicles; assay type: physicochemical; conditions: for Adsorption to the surface of single bilayer egg lecithin vesicles: 1 to 100 μM peptide, SCT-I at pH 7.4 or pH 3.0; for N, upper limit of bound peptide per vesicle / Kd: 7×10^-4 M lecithin; for N, upper limit of bound peptide per vesicle: pH 7.4; for Kd: pH 7.4, 45 min at 21° C., read-out: K, dissociation constant for vesicle binding; for A∞·N product: A∞ from the monolayer studies in Example 7
Procedure: Egg lecithin single bilayer vesicles (SBVs) were prepared by rapid injection of an ethanolic egg yolk lecithin (Avanti Polar-Lipids Inc., Birmingham, AL) solution into aqueous 0.16M KCl by the method of Batzri, S. and E. D. Korn, Biochim. Biophys. Acta 298:1015(1973) and purified by filtration through a 2.5 cm×87 cm column of Fractogel TSK HW-75(F)™ (Pierce Chemical Co., Rockford, IL). After purification, vesicles were characterized by gel filtration through a 1.5 cm×40 cm column of Sepharose CL-4B™ (Pharmacia Fine Chemicals) by the method of Batzri and Korn, supra. The concentration of vesicles in stock solutions were determined by the phosphate assay of Ames, B. N. and D. T. Dubin, J. Biol. Chem. 235:769(1960). In a typical binding experiment, varying concentrations of peptide were incubated for 45 min at 21° C. with vesicles (7×10^-4 M lecithin) in 0.02M sodium phosphate buffer, pH 7.4 containing 0.16M KCl in a total volume of 300 μl for 45 min. Free peptide was separated from vesicle-bound peptide by rapid filtration through a 1.4 cm×6.3 cm column of Sepharose CL-6B™ (Pharmacia Fine Chemicals) using the same buffer as above the eluent. The concentration of peptide in each fraction was determined using fluorescamine after first disrupting the vesicles with isopropanol (20% by volume).
The data for MCT-I and MCT-II were analyzed according to the equation Pf =(N·V·Pf /Pb)-K (Adamson, A. W., Physical Chemistry of Surfaces, 3rd Ed. (Wiley Interscience, New York, 1976), p. 388), where Pf and Pb are the concentration of free and bound peptide respectively, V is the initial molarity of vesicles (3200 phospholipids per vesicle), N is the upper limit of Pf /V, and K is the dissociation constant. Plots of V·Pf /Pb versus Pf were linear and gave K=12.9±4.8 μM with N=50±5 for MCT-I and K=6.7±1.7 μM, N= 68±2 for MCT-II. The product, A.infin. ·N, where A.infin. was obtained from the monolayer studies in Example 7, are nearly the same (A.infin. ·N(MCT-I) =2.2±0.2×10^4 Å^2, A.infin. ·N(MCT-II) =2.5±0.1×10^4 Å^2), accounting for the difference in observed values of N. A.infin. ·N is also in reasonable agreement with estimates of the available surface area between the phospholipid head groups of 230 Å diameter vesicles (1.8±0.6×10^4 Å^2; Kupferberg, J. P., S. Yokoyama, and F. J. Kezdy, J. Biol. Chem. 256:6274(1981)).

[4] = system: male Sprague-Dawley rats; assay: In vivo hypocalcemic rat bioassay (Example 6)
[5] = molecular target: T2, calcitonin receptors (brain particulate fraction) (Rattus norvegicus, UniProt P32214)
T2 sequence (P32214 25-516): T1 sequence (P32214 25-516)
Excerpt: Fractions from the single symmetrical peak which was eluted with this buffer were combined, adjusted to pH 7.5, and frozen in small aliquots until needed. The specific activity of the radioiodinated peptide was ~160 μCi/μg. […] Each point represents the mean of three triplicate determinations.

Row | Compound | IC50 for brain receptors, calculated from theoretical curves fitted to the data [1] [µM] | Activity relative to MCT-I ([2]; in all assays used to compare them) [times] | Hypocalcemic potency relative to SCT-I ([2]; subcutaneous, 0.1 to 100 ng/100 g body weight, 1 hr after injection, b99: all assays used to compare them) | Adsorption to the surface of single bilayer egg lecithin vesicles [3] | N, upper limit of bound peptide per vesicle [3] | Kd [3] [µM] | A∞·N product [3] | Activity relative to PCT ([4]; hypocalcemic response in rats, b98 covers in vitro and in vivo activity) | In vivo potency relative to SCT-I (fold less potent) ([4]; subcutaneous, plasma calcium 1 hour after injection) | IC50 [5] [µM]
1 | CC(C)C[C@H](NC(=O)[C@H](CCCCN)NC(=O)[C@H](CCC(N)=O)NC(=O)[C@H](CC(C)C)NC(=O)[C@H](CCC(N)=O)NC(=O)[C@H](CCC(N)=O)NC(=O)[C@H](CC(C)C)NC(=O)[C@H](CC(C)C)NC(=O)[C@@H]1CSSC[C@H](N)C(=O)N[C@@H](CO)C(=O)N[C@@H](CC(N)=O)C(=O)N[C@@H](CC(C)C)C(=O)N[C@@H](CO)C(=O)N[C@@H]([C@@H](C)O)C(=O)N1)C(=O)N[C@@H](CC(C)C)C(=O)N[C@@H](CCC(N)=O)C(=O)N[C@@H](CCCCN)C(=O)N[C@@H](CC(C)C)C(=O)N[C@@H](CCCCN)C(=O)N[C@@H](CCC(N)=O)C(=O)N[C@@H](Cc1ccc(O)cc1)C(=O)N1CCC[C@H]1C(=O)N[C@@H](CCCNC(=N)N)C(=O)N[C@H](C(=O)N[C@@H](CC(N)=O)C(=O)N[C@H](C(=O)NCC(=O)N[C@@H](CO)C(=O)NCC(=O)N[C@H](C(=O)N1CCC[C@H]1C(N)=O)[C@@H](C)O)[C@@H](C)O)[C@@H](C)O [MCT-II] (H-CSNLSTCLLQQLQKLLQKLKQYPRTNTGSGTP-NH2; disulfide 1-7; N-terminus assumed) | 0.0006 | 10 | indistinguishable from that of our preparation of SCT-I; also recorded: as active as SCT-I | adsorb to the surface | 68±2 | 6.7 ± 1.7 | 2.5±0.1×10^4 Å^2 |  |  | 
2 | CC(C)C[C@@H]1NC(=O)[C@H](CC(N)=O)NC(=O)CNC(=O)[C@@H](N)CSSC[C@@H](C(=O)N[C@@H](CC(C)C)C(=O)N[C@@H](CC(C)C)C(=O)N[C@@H](CCC(N)=O)C(=O)N[C@@H](CCC(N)=O)C(=O)N[C@@H](Cc2c[nH]c3ccccc23)C(=O)N[C@@H](CCC(N)=O)C(=O)N[C@@H](CCCCN)C(=O)N[C@@H](CC(C)C)C(=O)N[C@@H](CC(C)C)C(=O)N[C@@H](CCC(N)=O)C(=O)N[C@@H](CCCCN)C(=O)N[C@@H](CC(C)C)C(=O)N[C@@H](CCCCN)C(=O)N[C@@H](CCC(N)=O)C(=O)N[C@@H](CC(C)C)C(=O)N2CCC[C@H]2C(=O)N[C@@H](CCCNC(=N)N)C(=O)N[C@H](C(=O)N[C@@H](CC(N)=O)C(=O)N[C@H](C(=O)NCC(=O)N[C@@H](CO)C(=O)NCC(=O)N[C@H](C(=O)N2CCC[C@H]2C(N)=O)[C@@H](C)O)[C@@H](C)O)[C@@H](C)O)NC(=O)[C@H]([C@@H](C)O)NC(=O)[C@H](CO)NC1=O [MCT-I] (H-CGNLSTCLLQQWQKLLQKLKQLPRTNTGSGTP-NH2; disulfide 1-7) |  |  |  | adsorb to the surface | 50±5 | 12.9 ± 4.8 | 2.2±0.2×10^4 Å^2 | approximately as active as PCT; also recorded: equivalent to that of PCT | about 10 fold | 0.017
